From patent publication US20050255493A1, “Molecular targeting of the IGF-1 receptor” (priority 2002, published 2005)

What was measured:
IGF1R mRNA = test: Oligonucleotide scanning array hybridisation with labelled transcript; assay type: binding, human; conditions: for Rel hyb intensity: relative to the most strongly hybridising sequence on the array; for Hyb intensity: scanning array probed with labelled IGF1R mRNA; for Hybridisation to IGF1R mRNA on scanning array: 37° C. (and 23° C.)
Procedure: Scanning arrays complementary to the region of the IGF1R mRNA from position 537-685 were prepared using the standard techniques described in Southern E. M. et al., Nucleic Acids Res., 1994, 22(8): 1368-1373; and Sohail, M. and Southern, E. M. “Using oligonucleotide scanning arrays to find effective antisense reagents”, Methods in Molecular Biology, vol. 170: DNA Arrays: Methods and Protocols, Ed J. B. Rampal, Humana Press Inc., Totowa, N.J.
The scanning arrays comprise sets of oligonucleotides of various lengths. A series of oligonucleotides, complementary to the target mRNA, is made by sequential coupling of nucleotides to a solid surface. The DNA synthesis reagents are applied to a confined area on the surface of the solid support using a mask. The mask is shifted along the surface after each round of coupling, resulting in a series of oligonucleotides each complementary to a region of the target sequence.
• 2. Remove 1 μL for quantitation (see below). • 3. Remove unincorporated label by Sephadex® G25 column chromatography (see Note 11). • 4. Save 1 μL of the purified transcript for quantitation (see below). • 5. Check the integrity of the transcript by denaturing polyacrylamide gel electrophoresis (10). • 6. Add 10 μL of the scintillation fluid to the samples saved in Steps 2 and 4. • 7. Mix by vortexing and count the samples in a scintillation counter for 1 min. • 8. Calculate the percent incorporation: [formula] • 9. Calculate the amount of RNA made: [formula] Hybridisation to Arrays Made on Polypropylene • 1. Place the array in the hybridisation tube, coiling it in a spiral. • 2. Dilute the radiolabelled transcript in an appropriate volume (10-20 mL depending upon the size of the array and the hybridisation tube) of hybridisation buffer. The mix should cover the array along the length of the tube. • 3. Place items 1 and 2 in the oven at desired temperature for 30 min. Also put approximately 100 mL of the hybridisation buffer in the oven: this is to be used to wash the array at the end of hybridisation. • 4. Pour the hybridisation mix into the tube containing the array and hybridise for 3-4 h. • 5. Remove the hybridisation mix. Briefly wash the array with the hybridisation buffer from Step 3, air dry, cover with cling film and expose to a storage phosphor screen for 16-20 h (see Note 12). • 6. Scan the screen on PhosphorImager or STORM and analyse the image using xvseq (see below). Hybridisation to Arrays Made on Glass • 1. Clean the non-array glass plate with acetone and ethanol to ensure it is grease-free and siliconise it by treatment with dimethyl dichlorosilane solution and place it in lidded box. Also place moist paper towel in the box. • 2. Dilute the radiolabelled transcript in an appropriate volume of the hybridisation buffer (for example, for an array of 250 mm×50 mm use 500-750 μL). • 3. Place items 1 and 2 in an incubator at desired temprature for 30 min. Also put approximately 100 mL of the hybridisation buffer in the oven: this is to be used to wash the array at the end of hybridisation. • 4. Using a micropipette, pipette the hybridisation mix in a line evenly along the length of the non-array glass plate, avoiding formation of air bubbles. • 5. Starting at one end, carefully place the scanning array (face down) on top of the hybridisation mix. The mix will spread out and form a thin film between the two plates. Incubate for 3-4 h. • 6. Separate the plates from each other and wash the array plate with hybridisation buffer to remove unbound mix. Drain the plate, air dry, cover with cling film and expose to a storage phosphor screen for 16-20 h. • 7. Scan the screen on PhosphorImager or STORM and analyse the image using xvseq (see below). Alternative Hybridisation Protocol for Glass or Polypropylene • 1. Assemble with clips the array plate (or polypropylene array pasted with PhotoMount™ on a glass plate) and the non-array plate, using rubber tubing as spacers on two sides. • 2. […]

IR = IR level by immunoblotting in transfected MDA-231 cells; assay type: cell-based, human; conditions: for IR Protein Level (% control): 48 hr, vs scrambled control; for IR downregulation: TSS ASO at 300 nM; for Selectivity for IGF1R mRNA versus IR mRNA: compared with TSS ASO
Procedure: (§1) The human and murine cell lines used in this study were cultured in RPMI 1640 plus 10% FCS at 37° C. in a humidified atmosphere of 5% CO2. The cultures were negative when tested for Mycoplasma infection. Cultures were passaged the day before transfection to achieve 30-50% confluence the following day. Initial transfections of ASOs used 1-2.5 μg/ml Cytofectin (Glen Research, Sterling, Va.), according to the manufacturer's instructions. Latterly Oligofectamine (Life Sciences) has been used for all ASO and RNAi transfections. The method was as described (see manufacturer's instructions and www.dharmacon.com) with minor modifications. For transfection of monolayers seeded in 6 well plates, 5 μl phosphorothioate oligonucleotide or RNA duplex at 100× final concentration were mixed with 2501 serum-free Optimem (Gibco-BRL). In a separate tube 2 μl Oligofectamine was mixed with 68 μl Optimem. After 10 min incubation at room temperature the contents of the two tubes were mixed and incubated for a further 25 min at room temperature. Monolayers were washed with 1-2 ml Optimem. To the cells were added 175 μl Optimem followed by the 325 μl complexes. Volumes were scaled up by factors of 2.22 or 6.05 for transfection in 60 mm or 100 mm dishes respectively. Cultures were incubated at 37° C. for 4 hr, and then 50 μl FCS and 3.5 ml RPMI plus 5% FCS were added to each well. After 48 hr incubation effects on IGF1R and IR expression were determined by immunoblotting. Some transfected cultures were serum-starved overnight, divided into two aliquots and treated with 10 nM Long R3-IGF-I (GroPep, Adelaide) or diluent for 30 min at 37° C. prior to lysis.
(§2) IGF1R expression was assessed by immunoblotting as previously described (Macaulay et al 2001). After washing in ice-cold PBS, cells were lysed in 50 mM Hepes pH 7.5, 100 mM NaCl, 10 mM EDTA, 1% Triton-X-100, 4 mM sodium pyrophosphate, 2 mM sodium orthovanadate, 10 mM sodium fluoride, 1 mM PMSF, 2 μg/ml each leupeptin and aprotinin. Lysates were centrifuged for 15 minutes at 14,000 g, the protein concentration of supernatants was measured using BCA assay reagent (Pierce), and equivalent amounts of protein were separated on 7.5% SDS-PAGE gels and transferred to nitrocellulose. Target protein levels were assessed using antibodies to the β-subunit of the IGF1R or IR (Santa Cruz), phospho-Ser 473 Akt or total Akt (Cell Signalling, New England Biolabs) or β-tubulin (Sigma). Activated IGF1R was detected by immunoprecipitation for phosphotyrosine (P-Tyr-100, Cell Signaling Technology). Primary antibodies were detected with HRP-conjugated secondary antibodies (Dako), and ECL Plus (Amersham Pharmacia).
(§3) The ASOs and RNAi duplexes were transfected into MDA-231 cells (human ER negative breast cancer) using Cytofectin or Oligofectamine, as described above. After 48 hr the cells were lysed, and IGF1R and IR levels were measured by immunoblotting. The intensity of the autoradiographic bands was quantified by densitometry, and IGF1R (or IR) levels were corrected for loading differences. The specific IGF1R or IR results are presented as % IGF1R (or IR) level of that in cells transfected with the same concentration of an appropriate control. This was a scrambled control oligonucleotide for ASOs, and an inverted RNA duplex for RNAi.

IGF1R = IGF1R level by immunoblotting in transfected MDA-231 cells; assay type: cell-based, human; conditions: for IGF1R Protein Level (% control): MDA-231 cells, 48 hr, vs scrambled control
Procedure: as §1, §2, §3

MDA-MB-231 cells = test: Clonogenic survival and post-irradiation survival (SF2) of transfected MDA-MB-231 cells; assay type: cell-based, human; conditions: MDA-MB-231, 100 nM
Procedure: FIG. 7 A) MDA-MB-231 cells transfected with 100 nM RNA duplexes were serum-starved overnight and treated with 50 nM IGF-I for 30 min. […] Results represent mean±sem of colony counts in triplicate dishes. Similar results were obtained in two further clonogenic assays. • C) Clonogenic survival of transfected MDA-MB-231 cells that were unirradiated or irradiated at 2Gy. The fraction surviving 2Gy irradiation (SF2) is shown as mean±sem of three independent assays.
The effect of transfection with 100 nM ASO4 or siRNA duplexes R4 and R5, equivalent to strongly and weakly hybridizing ASOs respectively, on colony forming efficiency and post-irradiation survival was also evaluated. […] This in turn illustrates the utility of hybridisation to the scanning ASO array in the selection of siRNA reagents, since relative hybridisation to the array is found to be predictive of activity in RNA interference and biological efficacy.

Row | Substance | Rel hyb intensity (IGF1R mRNA) | Hyb intensity (IGF1R mRNA) | Hybridisation to IGF1R mRNA on scanning array (IGF1R mRNA) | IR Protein Level (% control) (IR; 30 nM ASO) | IR Protein Level (% control) (IR; 300 nM ASO) | IR downregulation (IR) | Selectivity for IGF1R mRNA versus IR mRNA (IR) | IGF1R Protein Level (% control) (IGF1R; 30 nM ASO) | IGF1R Protein Level (% control) (IGF1R; 300 nM ASO) | Survival after 2Gy irradiation (SF2) (MDA-MB-231 cells; 2Gy) | Clonogenic survival (MDA-MB-231 cells; unirradiated) | IGF1R downregulation compared between 21mer duplexes (IGF1R; MDA-231 cells, 0.5, 5 and 50 nm (FIG. 5))
1 | 15mer: 15mer sequence described by Wraight et al. which falls within the region 537-685, gtgcagcagcggtag (DNA GTGCAGCAGCGGTAG; further chemistry not given here) [reference compound] | 0.03 | 1695 |  |  |  |  |  |  |  |  |  | 
2 | ASO1 (20mer): phosphorothioate antisense oligonucleotide CGGCTTCTCCTCCATGGTCC, SEQ ID NO:2 (DNA, all phosphorothioate, methylation of C not given here) |  |  | hybridised strongly | 112 % control | 135 % control | did not cause significant downregulation of IR | greater selectivity for IGF1R mRNA versus IR mRNA | 66 ± 23 % control | 38 ± 6 % control |  |  | 
3 | ASO2 (20mer): phosphorothioate antisense oligonucleotide TGGTCTTCTCACACATCGGC, SEQ ID NO:7 (DNA, all phosphorothioate, methylation of C not given here) |  |  | hybridised strongly |  |  |  |  | 84 ± 11 % control | 47 ± 5 % control |  |  | 
4 | ASO3: phosphorothioate antisense oligonucleotide ATTGTTGATGGTGGTCTTCT, SEQ ID NO:11 (DNA, all phosphorothioate, methylation of C not given here) | >0.13 | >7048 | hybridises only at 23 °C |  |  |  |  | 105 ± 18 % control | 104 ± 22 % control |  |  | 
5 | ASO4: phosphorothioate antisense oligonucleotide GCGGTAGTTGTACTCATTGT, SEQ ID NO:13 (DNA, all phosphorothioate, methylation of C not given here) | >0.59 | >33,162 | hybridised strongly | 97 % control | 92 % control | did not cause significant downregulation of IR | greater selectivity for IGF1R mRNA versus IR mRNA | 73 ± 2 % control | 49 ± 2 % control | entirely non-specific | entirely non-specific | 
6 | ASO5: phosphorothioate antisense oligonucleotide GTGGTCCAGCAGCGGTAGTT, SEQ ID NO:15 (DNA, all phosphorothioate, methylation of C not given here) | >0.07 | >4150 | hybridised strongly |  |  |  |  |  |  |  |  | 
7 | Mut2: R2 duplex with single base pair mutation GCCGAUGUGUGUGAAGACCTT / TTCGGCUACACACACUUCUGG, SEQ ID NO:28 (sense GCCGAUGUGUGUGAAGACCNN; chemistry not fully specified; one strand is listed 3' to 5') |  |  |  |  |  |  |  |  |  |  |  | partially, though not completely, blocked
